Article PMC9312158, “Novel 1,2,3-Triazole-sulphadiazine-ZnO Hybrids as Potent Antimicrobial Agents against Carbapenem Resistant Bacteria” (Antibiotics, 2022)
Read-outs that look alike come from different tables or passages of the source.

Assays:
NDM-1 = NDM-1 (Klebsiella pneumoniae, UniProt C7C422); test: In vitro MBLs inhibition assay with CENTA substrate, NDM-1; format: biochemical; details: for inhibition at 5 µM: 5 µM compound, CENTA 70 µM
Description: (§1) Assays of enzyme inhibition were measured in the absence and presence of 5 µM of compound 4a–c and their ZnO conjugated hybrids to determine their inhibitory activity (IMP1 and NDM-1). CENTA (70 µM), a chromogenic cephalosporin substrate, was employed. The chromophore […] is formed when MBLs hydrolyze CENTA, and its generation may be detected spectrophotometrically using a plate reader at = 405 nm (at pH 7.0, ε = 6400 M^−1 cm^−1). Assays of kinetics of the inhibition experiments were carried out in accordance with earlier research. Non-linear regression was used to examine the inhibition data.

IMP-1 = IMP-1 (Serratia marcescens, UniProt P52699); test: In vitro MBLs inhibition assay with CENTA substrate, IMP-1; format: biochemical; details: for inhibition at 5 µM: 5 µM compound, CENTA 70 µM, read-out: % Inhibition IPM-1 (5 µM)
Chain of IMP-1 (P52699 19-246, looked up, species assumed): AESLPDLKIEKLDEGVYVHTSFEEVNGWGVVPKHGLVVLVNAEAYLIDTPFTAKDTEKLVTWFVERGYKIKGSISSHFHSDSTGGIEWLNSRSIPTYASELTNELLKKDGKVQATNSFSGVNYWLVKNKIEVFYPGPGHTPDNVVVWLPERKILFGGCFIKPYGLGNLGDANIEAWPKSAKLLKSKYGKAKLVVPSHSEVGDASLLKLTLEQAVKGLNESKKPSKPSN
Description: as §1

[1] = inhibition constant for the competitive inhibition mode, read-out: NDM-1 Kic
[2] = inhibition constant for the uncompetitive inhibition mode, read-out: NDM-1 Kiuc
[3] = inhibition constant for the competitive inhibition mode, read-out: IPM-1 Kic
[4] = inhibition constant for the uncompetitive inhibition mode, read-out: IPM-1 Kiuc

Chain of NDM-1 (C7C422 29-270, looked up, species assumed): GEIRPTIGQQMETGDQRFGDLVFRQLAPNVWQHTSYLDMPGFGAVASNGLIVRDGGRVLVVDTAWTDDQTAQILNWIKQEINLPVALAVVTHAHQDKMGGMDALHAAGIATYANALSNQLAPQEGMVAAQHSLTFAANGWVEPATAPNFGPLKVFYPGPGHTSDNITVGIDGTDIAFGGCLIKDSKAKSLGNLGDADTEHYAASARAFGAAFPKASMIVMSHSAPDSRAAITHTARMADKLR

SMILES	inhibition at 5 µM (NDM-1) [%]	Ki (NDM-1; [1]) [µM]	Ki (NDM-1; [2]) [µM]	inhibition at 5 µM (IMP-1) [%]	Ki (IMP-1; [3]) [µM]	Ki (IMP-1; [4]) [µM]
O=S(=O)(Nc1ncccn1)c1ccc(-n2cc(CO)nn2)cc1 [Compound 3a]	71.2	9.6	6	75	11.8	7.7
O=S(=O)(Nc1ccccn1)c1ccc(-n2cc(CO)nn2)cc1 [Compound 3b]	68.7	9	6	75.4	11.4	7.6
NC(N)=NS(=O)(=O)c1ccc(-n2cc(CO)nn2)cc1 [Compound 3c]	64.3	8.5	3.9	72.9	10.9	5.1
